The source of these data is ChEMBL document CHEMBL2021758, “Synthesis of indolizidinone analogues of cytotoxic alkaloids: monocyclic precursors are also active” (2012).

Structures are written as SMILES. Calls of active or inactive are those of the source. The calls are words filed in the database; no cut-off is given here.

The test system of test [1] is MCF7. Kind of test: Cytotoxicity against human MCF7 cells assessed as reduction of cell viability at 10 uM after 24 hrs. It is filed as functional, cell-based.
For test [2], the system named is SH-SY5Y. Briefly: Cytotoxicity against human SH-SY5Y cells assessed as reduction of cell viability at 10 uM after 24 hrs. In kind it is functional, cell-based.
The test system of test [3] is SH-SY5Y. Briefly: Cytotoxicity against human SH-SY5Y cells assessed as reduction of cell viability at 30 uM after 48 hrs. It is filed as functional.
Test [4] concerns SH-SY5Y. Kind of test: Cytotoxicity against human SH-SY5Y cells assessed as reduction of cell viability at 20 uM after 24 hrs. It is filed as functional, cell-based.
Test [5] relates to MCF7. Briefly: Cytotoxicity against human MCF7 cells assessed as reduction of cell viability at 30 uM after 48 hrs. In kind it is functional.
Test [6] concerns MCF7. Kind of test: Cytotoxicity against human MCF7 cells assessed as reduction of cell viability at 20 uM after 24 hrs. It is filed as functional, cell-based.
Test [7] deals with SH-SY5Y. Kind of test: Induction of morphological changes in human SH-SY5Y cells assessed as increase in volume of nucleus at 30 uM after 6 hrs. In kind it is functional, cell-based.
The test system of test [8] is MCF7. Briefly: Induction of morphological changes in human MCF7 cells at 30 uM after 24 hrs. In kind it is functional, cell-based.
Test [9] has as its system MCF7. Briefly: Induction of morphological changes in human MCF7 cells assessed as cell swelling at 30 uM after 6 hrs. It is filed as functional, cell-based.
The subject of test [10] is SH-SY5Y. Briefly: Induction of morphological changes in human SH-SY5Y cells assessed as cytoplasm vacuolization at 30 uM after 6 hrs. In kind it is functional, cell-based.
In test [11] the test system is SH-SY5Y. Kind of test: Induction of morphological changes in human SH-SY5Y cells assessed as increase in refringency of the nucleoli at 30 uM after 6 hrs. In kind it is functional, cell-based.
Test [12] relates to SH-SY5Y. Briefly: Induction of morphological changes in human SH-SY5Y cells assessed as cell swelling at 30 uM after 6 hrs. It is filed as functional, cell-based.
Test [13] concerns MCF7. Briefly: Induction of morphological changes in human MCF7 cells assessed as increase in refringency of the nucleoli at 30 uM after 6 hrs. It is filed as functional, cell-based.
The subject of test [14] is MCF7. Briefly: Induction of morphological changes in human MCF7 cells assessed as cytoplasm vacuolization at 30 uM after 6 hrs. It is filed as functional, cell-based.
For test [15], the system named is MCF7. Kind of test: Induction of morphological changes in human MCF7 cells assessed as increase in volume of nucleus at 30 uM after 6 hrs. In kind it is functional, cell-based.
Test [16] has as its system MCF7. Briefly: Induction of morphological changes in human MCF7 cells assessed as change in perimeter of cell at 30 uM after 48 hrs. It is filed as functional, cell-based.
Test [17] relates to MCF7. Briefly: Induction of morphological changes in human MCF7 cells assessed as change in cell shape at 30 uM after 48 hrs. It is filed as functional, cell-based.
Test [18] deals with SH-SY5Y. Kind of test: Induction of morphological changes in human SH-SY5Y cells assessed as change in volume of cell at 30 uM after 48 hrs. In kind it is functional, cell-based.
Test [19] relates to MCF7. Briefly: Induction of morphological changes in human MCF7 cells assessed as change in volume of cell at 30 uM after 48 hrs. In kind it is functional, cell-based.
The test system of test [20] is SH-SY5Y. Briefly: Induction of morphological changes in human SH-SY5Y cells assessed as change in perimeter of cell at 30 uM after 48 hrs. It is filed as functional, cell-based.
For test [21], the system named is SH-SY5Y. Kind of test: Induction of morphological changes in human SH-SY5Y cells assessed as change in cell shape at 30 uM after 48 hrs. It is filed as functional, cell-based.

`O=C(C[C@@H]1C[C@@H](O)CN1C(=O)Cc1ccccc1)c1ccc(-c2ccccc2)cc1`: the outcome in the test with MCF7 [1] and in the test on SH-SY5Y [2] was Active.

For the molecule `O=C1C(c2ccccc2)=C(c2ccccc2)C[C@@H]2C[C@@H](O)CN12`, the result in the test on SH-SY5Y [3], with MCF7 [1], in the test with SH-SY5Y [4], with MCF7 [5], in the test on SH-SY5Y [2] and with MCF7 [6] was Active.

As to `COc1ccc(C2=C(c3ccccc3)C(=O)N3C[C@H](O)C[C@H]3C2)cc1`, the outcome with SH-SY5Y [3], in the test with MCF7 [1], with SH-SY5Y [4], with MCF7 [5], in the test with SH-SY5Y [2] and with MCF7 [6] was Active.

Turning to `O=C1C(c2ccccc2)=C(c2ccc(-c3ccccc3)cc2)C[C@@H]2C[C@@H](O)CN12`, the Activity with SH-SY5Y [3] and with MCF7 [5] was over 70% each time. Also, the result in the test with MCF7 [1], in the test with SH-SY5Y [4], in the test on SH-SY5Y [2] and in the test with MCF7 [6] was Active.

Consider `Cn1cccc1C1=C(c2ccccc2)C(=O)N2C[C@H](O)C[C@@H]2C1`, for which the result with SH-SY5Y [3], in the test with MCF7 [1], in the test with SH-SY5Y [4], with MCF7 [5], in the test with SH-SY5Y [2] and with MCF7 [6] was Active.

For `COc1ccc(C2=C(c3ccccc3)C(=O)N3C[C@H](O)C[C@@H]3C2)cc1`, the outcome in the test with MCF7 [1], with SH-SY5Y [4], in the test on MCF7 [5], in the test on SH-SY5Y [2] and in the test with MCF7 [6] was Active.

For `Cn1cccc1C1=C(c2ccccc2)C(=O)N2C[C@H](O)C[C@H]2C1`, the result with SH-SY5Y [3], in the test with MCF7 [1], in the test with SH-SY5Y [4], in the test with MCF7 [5], with SH-SY5Y [2] and in the test with MCF7 [6] was Active.

Turning to `O=C1C(c2ccccc2)=C(c2ccccc2)C[C@H]2C[C@@H](O)CN12`, the result in the test on SH-SY5Y [3], in the test with MCF7 [1], in the test on SH-SY5Y [4], in the test on MCF7 [5], in the test with SH-SY5Y [2] and with MCF7 [6] was Active.

With `O=C(C[C@H]1C[C@@H](O)CN1C(=O)Cc1ccccc1)c1ccc(-c2ccccc2)cc1`, the outcome in the test with SH-SY5Y [7], with MCF7 [8], with MCF7 [9], with MCF7 [1], in the test on SH-SY5Y [10] and in the test on SH-SY5Y [11] was Active. For the same molecule, the result in the test on SH-SY5Y [12], with MCF7 [13], with SH-SY5Y [2], in the test on MCF7 [14] and with MCF7 [15] was Active.

As to `O=C1C(c2ccccc2)=C(c2ccc(Br)cc2)C[C@H]2C[C@@H](O)CN12`, the result with MCF7 [1], with SH-SY5Y [4], with MCF7 [5], with SH-SY5Y [2] and with MCF7 [6] was Active.

For the molecule `O=C1C(c2ccccc2)=C(c2ccc(Br)cc2)C[C@@H]2C[C@@H](O)CN12`, the result in the test with SH-SY5Y [3], in the test on MCF7 [1], in the test with SH-SY5Y [4], in the test with MCF7 [5], in the test on SH-SY5Y [2] and in the test with MCF7 [6] was Active.

Consider `O=C1C(c2ccccc2)=C(c2ccc(-c3ccccc3)cc2)C[C@H]2C[C@@H](O)CN12`, for which the result with MCF7 [16], with MCF7 [17], in the test with MCF7 [1], in the test with SH-SY5Y [18], in the test with SH-SY5Y [4] and with MCF7 [19] was Active. The result in the test on SH-SY5Y [20], with SH-SY5Y [21], with SH-SY5Y [2] and in the test with MCF7 [6] was Active. The Activity in the test with SH-SY5Y [3] and in the test on MCF7 [5] was over 70% in each case.
